Read-outs that look alike come from different tables or passages of the source.
Legend:
[1] = molecular target: T1, JAK2 (Homo sapiens, UniProt O60674); assay: Recombinant Human JAK2 Kinase Assay (TRF); format: biochemical; conditions: read-out: JAK2 Potency
T1 construct: host or cells: baculovirus expression system
Outline: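 Europium-labelled PY100 antibody reported tyrosine phosphorylation of a Neutravidin-captured biotinyl 15-mer peptide by JAK2 (baculovirus-expressed, 15 ng/ml). Conditions: 20 mM HEPES pH 7.2, 0.2 μM ATP, 1 mM MnCl2, 0.1% BSA, DMSO 2.5% final, 20 min at room temperature.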

[2] = molecular target: T2, ALK (Homo sapiens, UniProt Q9UM73); assay: ALK Kinase Assay (ELISA/TRF, PLC-γ substrate); format: biochemical; conditions: read-out: ALK Potency
T2 construct: host or cells: baculovirus expression system
Outline: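 PLC-γ coat 10 μg/mL in TBS; ALK 30 ng/ml added to start; 37° C, 15 min; Eu-N1 PT66 antibody detection (TRF). IC50: % inhibition vs log10 [cpd], variable-slope sigmoidal fit.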

[3] = JAK2 kinase inhibition, 0.2 μM ATP
[4] = ALK kinase inhibition, 1 μM ATP

T1 sequence (O60674 whole entry): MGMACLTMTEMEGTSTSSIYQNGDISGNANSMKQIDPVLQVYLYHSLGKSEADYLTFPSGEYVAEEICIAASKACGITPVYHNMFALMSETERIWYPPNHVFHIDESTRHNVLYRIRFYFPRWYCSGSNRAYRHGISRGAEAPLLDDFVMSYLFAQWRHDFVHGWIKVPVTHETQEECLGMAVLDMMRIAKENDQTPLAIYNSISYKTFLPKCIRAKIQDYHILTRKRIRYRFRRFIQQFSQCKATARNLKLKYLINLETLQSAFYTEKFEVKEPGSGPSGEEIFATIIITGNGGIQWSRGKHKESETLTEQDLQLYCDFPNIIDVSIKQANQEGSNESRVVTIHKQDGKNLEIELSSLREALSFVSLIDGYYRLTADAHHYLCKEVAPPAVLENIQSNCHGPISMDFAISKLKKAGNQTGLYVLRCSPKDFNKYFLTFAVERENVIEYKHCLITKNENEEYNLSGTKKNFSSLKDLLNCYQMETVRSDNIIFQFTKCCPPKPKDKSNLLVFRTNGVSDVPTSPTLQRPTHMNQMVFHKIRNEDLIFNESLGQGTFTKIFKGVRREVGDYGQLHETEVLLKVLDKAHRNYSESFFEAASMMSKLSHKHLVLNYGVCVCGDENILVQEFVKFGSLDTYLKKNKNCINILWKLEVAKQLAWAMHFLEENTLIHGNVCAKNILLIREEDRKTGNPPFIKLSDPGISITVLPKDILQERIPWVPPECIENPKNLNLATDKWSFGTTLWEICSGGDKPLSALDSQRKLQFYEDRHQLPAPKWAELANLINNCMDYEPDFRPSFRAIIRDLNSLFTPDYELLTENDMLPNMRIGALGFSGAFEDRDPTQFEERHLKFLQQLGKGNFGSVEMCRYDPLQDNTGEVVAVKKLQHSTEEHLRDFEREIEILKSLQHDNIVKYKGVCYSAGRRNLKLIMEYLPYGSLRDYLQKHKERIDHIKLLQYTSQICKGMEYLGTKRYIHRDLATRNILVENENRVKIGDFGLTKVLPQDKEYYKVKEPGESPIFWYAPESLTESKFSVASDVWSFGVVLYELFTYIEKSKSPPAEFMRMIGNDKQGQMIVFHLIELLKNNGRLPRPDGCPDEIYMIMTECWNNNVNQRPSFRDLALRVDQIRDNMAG
T2 sequence (Q9UM73 19-1620): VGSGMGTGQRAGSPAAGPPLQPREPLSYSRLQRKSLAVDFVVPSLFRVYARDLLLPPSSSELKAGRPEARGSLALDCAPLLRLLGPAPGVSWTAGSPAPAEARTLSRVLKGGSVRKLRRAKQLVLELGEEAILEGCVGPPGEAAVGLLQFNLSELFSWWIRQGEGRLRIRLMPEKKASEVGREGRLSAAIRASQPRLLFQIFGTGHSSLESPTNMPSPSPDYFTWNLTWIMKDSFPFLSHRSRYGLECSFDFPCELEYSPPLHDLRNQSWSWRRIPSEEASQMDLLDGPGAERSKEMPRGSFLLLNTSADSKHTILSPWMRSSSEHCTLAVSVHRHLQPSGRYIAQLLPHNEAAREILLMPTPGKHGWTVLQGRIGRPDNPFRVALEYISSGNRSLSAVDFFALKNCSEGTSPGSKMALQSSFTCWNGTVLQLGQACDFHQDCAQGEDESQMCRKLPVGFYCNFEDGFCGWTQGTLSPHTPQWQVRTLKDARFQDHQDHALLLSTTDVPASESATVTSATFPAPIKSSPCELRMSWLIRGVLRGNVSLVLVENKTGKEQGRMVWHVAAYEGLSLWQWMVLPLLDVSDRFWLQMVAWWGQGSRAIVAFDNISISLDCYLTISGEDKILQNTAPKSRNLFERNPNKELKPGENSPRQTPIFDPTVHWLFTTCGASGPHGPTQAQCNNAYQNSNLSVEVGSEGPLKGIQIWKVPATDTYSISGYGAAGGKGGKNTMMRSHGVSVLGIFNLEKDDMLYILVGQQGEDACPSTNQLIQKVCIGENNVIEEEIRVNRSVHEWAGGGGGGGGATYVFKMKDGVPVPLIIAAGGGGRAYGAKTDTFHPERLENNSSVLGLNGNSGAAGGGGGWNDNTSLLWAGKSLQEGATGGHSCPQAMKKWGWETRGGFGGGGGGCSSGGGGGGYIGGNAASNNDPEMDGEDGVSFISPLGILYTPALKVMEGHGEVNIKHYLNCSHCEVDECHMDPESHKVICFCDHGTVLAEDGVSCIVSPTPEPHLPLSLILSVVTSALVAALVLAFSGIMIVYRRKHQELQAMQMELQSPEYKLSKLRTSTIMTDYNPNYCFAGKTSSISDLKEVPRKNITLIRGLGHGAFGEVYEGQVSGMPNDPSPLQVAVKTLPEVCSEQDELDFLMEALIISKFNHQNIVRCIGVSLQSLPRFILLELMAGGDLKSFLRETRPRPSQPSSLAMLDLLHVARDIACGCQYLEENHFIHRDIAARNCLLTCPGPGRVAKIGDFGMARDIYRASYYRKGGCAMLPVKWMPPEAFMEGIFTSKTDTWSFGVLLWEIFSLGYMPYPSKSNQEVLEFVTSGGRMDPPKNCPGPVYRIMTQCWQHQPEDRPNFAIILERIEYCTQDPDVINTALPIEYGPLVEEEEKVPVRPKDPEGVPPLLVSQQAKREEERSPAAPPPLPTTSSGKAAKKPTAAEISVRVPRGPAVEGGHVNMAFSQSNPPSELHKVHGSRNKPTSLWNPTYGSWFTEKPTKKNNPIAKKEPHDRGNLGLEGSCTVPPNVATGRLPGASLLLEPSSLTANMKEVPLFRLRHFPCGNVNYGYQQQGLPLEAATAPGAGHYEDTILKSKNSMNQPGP

| SMILES | IC50 [1, 3] | IC50 [2, 4] | IC50 ([1]; JAK2 Kinase Inhibition) | IC50 ([2]; ALK Kinase Inhibition) |
| --- | --- | --- | --- | --- |
| COc1cc(N2CCN(c3ccccn3)CC2)ccc1Nc1ncc2ccc(-c3ccccc3OC)n2n1 [Example 994, [7-(2-Methoxy-phenyl)-pyrrolo[2,1-f][1,2,4]triazin-2-yl]-[2-methoxy-4-(4-pyridin-2-yl-piperazin-1-yl)-phenyl]-amine] | 100 to 1000 nM | 100 to 1000 nM |  |  |
| COc1cc(C2CCN(CC(=O)O)CC2)ccc1Nc1ncc2ccc(-c3ccccc3OC)n2n1 [Example 1278, (4-{3-Methoxy-4-[7-(2-methoxy-phenyl)-pyrrolo[2,1-f][1,2,4]triazin-2-ylamino]-phenyl}-piperidin-1-yl)-acetic acid] | 100 to 1000 nM | < 100 nM |  |  |
| CC(=O)N1CCCCc2ccc(Nc3ncc4ccc(-c5cccc(NS(C)(=O)=O)c5)n4n3)cc21 [Example 633, N-{3-[2-(1-Acetyl-2,3,4,5-tetrahydro-1H-benzo[b]azepin-8-ylamino)-pyrrolo[2,1-f][1,2,4]triazin-7-yl]-phenyl}methanesulfonamide] | < 100 nM | 1000 to 10000 nM |  |  |
| COc1ccc(-c2ccc3cnc(Nc4ccc5c(c4)N(S(C)(=O)=O)CCC5)nn23)cn1 [Example 1061, (1-Methanesulfonyl-1,2,3,4-tetrahydro-quinolin-7-yl)-[7-(6-methoxy-pyridin-3-yl)-pyrrolo[2,1-f][1,2,4]triazin-2-yl]-amine] | < 100 nM | > 10000 nM |  |  |
| COc1cc(C2=CCN(CC(N)=O)CC2)ccc1Nc1ncc2ccc(-c3ccccc3OC)n2n1 [Example 1274, 2-(4-{3-Methoxy-4-[7-(2-methoxy-phenyl)-pyrrolo[2,1-f][1,2,4]triazin-2-ylamino]-phenyl}-3,6-dihydro-2H-pyridin-1-yl)-acetamide] | 100 to 1000 nM | < 100 nM |  |  |
| O=C(c1ccc(Nc2ncc3ccc(-c4cccnc4)n3n2)cc1)N1CCOCC1 [Example 317, Morpholin-4-yl-[4-(7-pyridin-3-yl-pyrrolo[2,1-f][1,2,4]triazin-2-ylamino)-phenyl]-methanone] |  |  | < 100 nM | 1000 to 10000 nM |
| COc1cc(N2CCN(C)CC2)ccc1Nc1ncc2ccc(-c3ccc(C#N)nc3)n2n1 [Example 77, 5-{2-[2-Methoxy-4-(4-methyl-piperazin-1-yl)-phenylamino]-pyrrolo[2,1-f][1,2,4]triazin-7-yl}-pyridine-2-carbonitrile] |  |  | < 100 nM | 100 to 1000 nM |
| COc1c(Nc2ncc3ccc(-c4ccccc4N(C)S(C)(=O)=O)n3n2)cccc1C(=O)N1CCN(C)CC1 [Example 1230, N-(2-{2-[2-Methoxy-3-(4-methyl-piperazine-1-carbonyl)-phenylamino]-pyrrolo[2,1-f][1,2,4]triazin-7-yl}-phenyl)-N-methyl-methanesulfonamide] | > 10000 nM | 100 to 1000 nM |  |  |
| COc1cc(N2CCN(C)CC2)ccc1Nc1ncc2ccc(-c3cccnc3OC)n2n1 [Example 34, [2-Methoxy-4-(4-methyl-piperazin-1-yl)-phenyl]-[7-(2-methoxy-pyridin-3-yl)-pyrrolo[2,1-f][1,2,4]triazin-2-yl]-amine] |  |  | < 100 nM | < 100 nM |
| c1cc2c(c(-c3ccc4cnc(Nc5cnc6c(N7CCNCC7)cccc6c5)nn34)c1)OCC2 [Example 710, [7-(2,3-Dihydro-benzofuran-7-yl)-pyrrolo[2,1-f][1,2,4]triazin-2-yl]-(8-piperazin-1-yl-quinolin-3-yl)-amine] | 1000 to 10000 nM | > 10000 nM |  |  |
| CN1CCN(c2ccc(Nc3ncc4ccc(-c5ccccc5O)n4n3)cc2)CC1 [Example 1154, 2-{2-[4-(4-Methyl-piperazin-1-yl)-phenylamino]-pyrrolo[2,1-f][1,2,4]triazin-7-yl}-phenol] | < 100 nM | < 100 nM |  |  |
| COc1ccc(-c2ccc3cnc(Nc4ccc(C5CCN(CC(N)=O)CC5)cc4)nn23)cn1 [Example 1413, 2-(4-{4-[7-(6-Methoxy-pyridin-3-yl)-pyrrolo[2,1-f][1,2,4]triazin-2-ylamino]-phenyl}-piperidin-1-yl)-acetamide] |  |  | < 100 nM | 100 to 1000 nM |

— patent US8471005B2 (Cephalon, Inc., priority 2008, dated 2013)
